Source: patent US6489098B1, “Means and methods for monitoring nucleoside reverse transcriptase inhibitor antiretroviral therapy and guiding therapeutic decisions in the treatment of HIV/AIDS” (ViroLogic, Inc., priority 1998, dated 2002)
Several values for one entry are separate records, joined by “and”; a condition that tells them apart may be missing. Equal values may be shown once. Entries after “also recorded” stand apart in the source; their conditions may differ.

Assays:
[1] = tested on: HIV-1 RT mutant resistance test vector A62V+T69SSA+V75I; assay: Phenotypic susceptibility assay, site directed RTV A62V+T69SSA+V75I; format: cell-based; conditions: for Average fold reduction in susceptibility: RTV with 62 + 69 + 751 (A62V, T69SSA, V75I), 1 replicate; for effect on susceptibility (words): RTV with A62V+T69SSA+V75I
Procedure: (§1) Resistance tests were carried out with resistance test vectors using two host cell types. Resistance test vector viral particles were produced by a first host cell (the resistance test vector host cell) that was prepared by transfecting a packaging host cell with the resistance test vector and the packaging expression vector. The resistance test vector viral particles were then used to infect a second host cell (the target host cell) in which the expression of the indicator gene is measured.
(§2) The resistance test vectors containing a functional luciferase gene cassette were constructed and host cells were transfected with the resistance test vector DNA. The resistant test vectors contained patient-derived reverse transcriptase and protease sequences that were either susceptible or resistant to the antiretroviral agents, such as nucleoside reverse transcriptase inhibitors, non-nucleoside reverse transcriptase inhibitors and protease inhibitors. The resistance test vector viral particles produced by transfecting the resistance test vector DNA into host cells, either in the presence or absence of protease inhibitors, were used to infect target host cells grown either in the absence of NRTI or NNRTI or In the presence of increasing concentrations of the drug. The amount of luciferase activIty produced in infected target host cells in the presence of drug was compared to the amount of luciferase produced in infected target host cells in the absence of drug. Drug resistance was measured as the amount of drug required to inhibit by 50% the luciferase activity detected in the absence of drug (Inhibitory concentration 50%, IC50). The IC50 values were determined by plotting percent drug inhibition vs. log 10 drug concentration.
(§3) Host cells were seeded in 10-cm-diameter dishes and were transfected several days after plating with resistance test vector plasmid DNA and the envelope expression vector. Transfections were performed using a calcium-phosphate precipitation procedure. The cell culture media containing the DNA precipitate was replaced with fresh medium, from one to 24 hours, after transfection. Cell culture media containing resistance test vector viral particles was harvested one to four days after transfection and was passed through a […] filter before being stored at −80° C. HIV capsid protein (p24) levels in the harvested cell culture media were determined by an EIA method as described by the manufacturer (SIAC; Frederick, Md.). Before infection, target cells (293 and 293/T) were plated in cell culture media. Control infections were performed using cell culture media from mock transfections (no DNA) or transfections containing the resistance test vector plasmid DNA without the envelope expression plasmid. One to three or more days after infectIon the media was removed and cell lysis buffer (Promega) was added to each well. Cell lysates were assayed for luciferase activity (FIG. 3). The inhibitory effect of the drug was determined using the following equation:
(§4) % luciferase inhibition=1−(RLUluc[drug]÷RLUluc)×100
(§5) where RLUluc [drug] is the relative light unit of luciferase activity in infected cells in the presence of drug and RLUluc is the Relative Light Unit of luciferase activity in infected cells in the absence of drug. IC50 values were obtained from the sigmoidal curves that were generated from the data by plotting the percent inhibition of luciferase activity vs. the log 10 drug concentration. The drug inhibition curves are shown in (FIG. 3).
(§6) Genotypic changes that are observed to correlate with changes in phenotypic patterns of drug susceptibility are evaluated by construction of resistance test vectors containing the specific mutation on a defined, wild-type (drug susceptible) genetic background. Mutations may be incorporated alone and/or in combination with other known drug resistance mutations that are thought to modulate the susceptibility of HIV to a certain drug or class of drugs. […]

[2] = tested on: HIV-1 RT mutant resistance test vector 41 + 69 + 184 + 215; assay: Phenotypic susceptibility assay, site directed RTV 41 + 69 + 184 + 215; format: cell-based; conditions: RTV with 41 + 69 + 184 + 215; 2 replicates
Procedure: as §1, §2, §3, §4, §5, §6

[3] = tested on: HIV-1 RT mutant resistance test vector Q151M-RTV; assay: Phenotypic susceptibility assay, site directed RTV Q151M; format: cell-based; conditions: for effect on susceptibility (words): RTV with Q151M vs wild type RTV
Procedure: as §1, §2, §3
% luciferase inhibition=1−(RLUluc[drug]÷RLUluc)×100 […]
Genotypic changes that are observed to correlate with changes in phenotypic patterns of drug susceptibility are evaluated by construction of resistance test vectors containing the specific mutation on a defined, wild-type (drug susceptible) genetic background. […]

[4] = tested on: ZDV-resistant HIV isolates; conditions: cited from earlier work

Row | Compound | Average fold reduction in susceptibility [1] | Average fold reduction in susceptibility [2] [fold] | effect on susceptibility (words) [3] | cross-resistance of ZDV-resistant strains [4] | effect on susceptibility (words) [1] | fold reduction in susceptibility ([3]; RTV with Q151M vs control RTV)
1 | Nc1ccn([C@H]2CC[C@@H](CO)O2)c(=O)n1 [ddC, zalcitabine] | 1.89 fold | 3.48 | Significant changes in susceptibility | no evidence that mutations selected for during ZDV monotherapy influence sensitivity | – | –
2 | Nc1nc(NC2CC2)c2ncn([C@H]3C=C[C@@H](CO)C3)c2n1 [ABC, abacavir] | 2.56 fold | 11.56 | – | – | – | –
3 | O=c1[nH]cnc2c1ncn2[C@H]1CC[C@@H](CO)O1 [ddI, didanosine] | 1.17 fold | 2.28 | Significant changes in susceptibility | no evidence that mutations selected for during ZDV monotherapy influence sensitivity | – | –
4 | Cc1cn([C@H]2C[C@H](N=[N+]=[N-])[C@@H](CO)O2)c(=O)[nH]c1=O [AZT, zidovudine] | 2 fold and 0.71 fold | 5.87 | Significant changes in susceptibility; also recorded: reduced d4T and AZT susceptibility | – | completely suppressed the reduced AZT susceptibility; also recorded: completely suppressed the six-fold AZT resistance | –
5 | Cc1cn([C@H]2C=C[C@@H](CO)O2)c(=O)[nH]c1=O [d4T, stavudine] | 1.40 fold | 2.32 | less susceptible to d4T than the wild type control RTV; also recorded: reduced d4T and AZT susceptibility | Cross-resistance | did not reduce d4T susceptibility more than the T69SSA mutation alone | approximately three-fold
